# US10363239B2, “Method for inhibiting growth of cancer cells” (Pain Therapeutics, Inc., priority 2013, dated 2019)
# Columns and labels:
# Format in all cases: cell-based, human
# MiaPaCa2 cells = assay: Blocking of compound effects with FLNA decoy pentapeptide VAKGL or control peptide VAAGL; conditions: 4 days
# Experimental: FIGS. 32A-32D illustrate Western blots of pS^2152FLNA, Ras-GAP, PP2A-Aα/β, PTEN and FLNA in FIG. 32A and Ki67, PCNA and actin in FIG. 32C after four days of incubation (contact) of MiaPaCa2 cells in the presence of medium alone, or medium containing 1 nM Compound C0105 with and without the presence of 10 μM peptide VAAGL (SEQ ID NO: 2) or peptide VAKGL (SEQ ID NO: 1). Densitometric quantification of the Western blot results are shown in the graphs of FIG. 32B for the amounts of pS^2152FLNA, Ras-GAP, PP2A-Aα/β and PTEN in anti-FLNA immunoprecipitates and the amounts of Ki76 and PCNA (normalized by actin) in FIG. 32D. N=4, *p<0.01.
# To confirm that Compound C0105 effects are mediated by binding to FLNA pentapeptide VAKGL (SEQ ID NO: 1), cancer cells were incubated with vehicle or 1 nM Compound C0105 together with 10 μM of decoy pentapeptide (VAKGL) or control peptide, VAAGL (K-A decoy peptide; SEQ ID NO: 2) for 4 days as described previously.
# Cells were harvested by centrifugation and solubilized, and lysates were immunoprecipitated with anti-FLNA. Levels of pS^2152FLNA, PTEN, PP2A-Aα, PP2A-Aβ and Ras-GAP in the anti-FLNA immunoprecipitates were determined by Western blotting.
# A separate series of studies was undertaken to determine whether Compound C0105's reduction in proliferation markers is also mediated by Compound C0105 binding to the pentapeptide region of FLNA. As above, cancer cells were incubated for 4 days with vehicle or 1 nM Compound C0105 together with 10 μM of decoy pentapeptide (VAKGL; SEQ ID NO: 1) or control peptide, VAAGL (SEQ ID NO: 2).
# Cells were harvested by centrifugation and the resultant cell pellets were washed and sonicated in ice-cold immunoprecipitation buffer. Protein concentrations were measured by the Bradford method. […] Fifty μl of solubilized cell lysates were separated using SDS-PAGE, the protein bands electrophoretically transferred to nitrocellulose membranes and the level of cell proliferation was determined by Western blotting using the levels of Ki67 and PCNA as described previously.
# primary lung fibroblasts = assay: [3H]glucose uptake; conditions: C0105 0.1-5 nM, other compounds 1 or 5 nM; 4 days
# Experimental: (§1) FIG. 1A through FIG. 1M illustrate the effects of various FLNA-binding compounds on glucose uptake in glioblastoma, melanoma, breast and pancreatic cancer cell lines, along with appropriate non-cancerous primary cell controls. Cells were grown in the absence or presence of 0.1-5 nM indicated compounds for 4 days. Following brief washes with PBS, cells were serum-deprived for 4 hours and then incubated in oxygenated Kreb's Ringer containing 0.1 μCi [^3H]glucose for 2 hours under constant oxygenation. The reaction was terminated by removal of the incubation medium, and cells were washed and scraped off to determine the amounts of [^3H]glucose in cells by scintillation spectrometry. […] N=5-6. […] . […] . To determine the effect of Compound C0105 on glucose utilization, the cancer and primary normal cells were plated extremely thinly (10%). Once cells attached, Compound C0105 was added at 0.1, 0.5, 1 or 5 nM in the medium twice daily (6 hours apart) for 4 days. The cells were serum-deprived (glucose deprived) for 2 hours. Cells were then rinsed with 1 ml PBS and glucose uptake was assessed by contacting the cells with [^3H]glucose (0.01 uCi/l ml) in Kreb's Ringer for 2 hours. Cells were then rinsed with 1 ml PBS 3 times, scraped off and their glucose content counted by liquid scintillation spectrophotometry.
# (§2) Both glioblastoma and melanoma cells were plated extremely thinly. Once cells attached, Compound C0105 was added at 0.1, 0.5, 1 and 5 nM, whereas the other compounds were present at 1 and 5 nM in the medium twice daily (6 hours apart) for 4 days. The cells were serum-deprived (glucose deprived) for 2 hours. Cells were then rinsed with 1 ml PBS and glucose uptake was assessed by contacting the cells with [3H]glucose (0.01 uCi/l ml) of Kreb's Ringer for 2 hours. Cells were then rinsed with 1 ml PBS 3 times, scraped off and their glucose contents counted by liquid scintillation spectrophotometry.
# melanoma cells (A2058) = assay: [3H]glucose uptake
# Experimental: as §1, §2
# [1] = tested on: glioblastoma cells (U-87 MG); assay: [3H]glucose uptake
# Experimental: as §1, §2
# [2] = C0105 0.1-5 nM, other compounds 1 and 5 nM, twice daily for 4 days
smiles,measurement,setting,value
CN1CCC2(CC1)NCC(=O)N2Cc1ccccc1 [Compound C0105],Effect on pS2152FLNA and FLNA associations when co-incubated with control peptide VAAGL,MiaPaCa2 cells; 1 nM compound + 10 μM VAAGL (SEQ ID NO: 2),did not disrupt Compound C0105 effects
same,Effect on pS2152FLNA and FLNA associations when co-incubated with VAKGL decoy pentapeptide,MiaPaCa2 cells; 1 nM compound + 10 μM VAKGL (SEQ ID NO: 1),"lost its effect on pS^2152FLNA hyperphosphorylation and on FLNA associations with ras-GAP, PTEN and PP2A"
same,"Reduction in cell proliferation (Ki67, PCNA) when co-incubated with VAKGL decoy pentapeptide",MiaPaCa2 cells; 1 nM compound + 10 μM VAKGL,disrupted Compound C0105's reduction in cell proliferation
same,Glucose uptake / glucose content,primary lung fibroblasts,not changed
same,Inhibition of glucose uptake,"melanoma cells (A2058); 0.1-5 nM, not dose-dependent",about 25%
same,Glucose utilization,melanoma cells (A2058); [2],decreased the elevated glucose utilization
same,Reduction of glucose uptake,"[1]; 0.1 nM, 4 days",25%
same,"Inhibition of glucose uptake, maximal effect","[1]; 1 nM, 4 days",50%
same,EC50,"[1]; 4 days, read-out: EC50, inhibition of glucose uptake",~0.1 nM
same,Glucose utilization,[1]; [2],decreased the elevated glucose utilization
